From US20120171123A1, “USES AND COMPOSITIONS FOR TREATMENT OF RHEUMATOID ARTHRITIS” (priority 2006, published 2012)
Marks after values point to notes of the source that are not given here.

Test system: MTX-naïve adult patients with active, early RA (<3 years)
Test: Study J: radiographic progression (TSS, joint erosion, joint space narrowing)
Type: in vivo, human
Description: The co-primary endpoints, comparing MTX alone with the combination at 1 year, were the ACR50 response (using non-responder imputation), and inhibition of radiographic progression, as measured by change in total Sharp score (TSS). In this study, the term “Major Clinical Response” (MCR) meant a continuous ACR70 response for 6 or more consecutive months.
At 1 and 2 years, the American College of Rheumatology (ACR) responses (ACR20, ACR50, and ACR70), the Disease Activity Score 28 (DAS28), and the change (Δ) in Total Sharp Score (TSS) were determined for all patients. Results were analyzed for the intention-to-treat (ITT) population using imputation for missing data. Clinical remission was defined as DAS28<2.6. The mean ΔTSS values at 1 year and 2 years (N=791) were determined for patients in each ACR response category (ACR20/50/70) and for patients with DAS28<2.6
Radiographic progression was measured by Total Sharp Score (TSS) at baseline, and 1 and 2 years in the intention to treat population (ITT) using imputation for missing data. In this analysis, patients were divided into 1 of 2 categories by disease duration at baseline: <6 months (Group 1) or 6 months to 3 years (Group 2). Mean changes in TSS were reported for both groups by each of the 3 treatment arms from baseline to Year 1 and from Year 1 to Year 2.
Radiographic progression was assessed by mean change from baseline in Total Sharp Score (TSS) and stratified into those with (ΔTSS>0.5) and without (Δ≦TSS 0.5). Patients were categorized as either having radiographic progression at 1 year (ΔTSS>0.5) or not (Δ≦TSS 0.5). A logistic regression model was used to identify predictors of radiographic disease progression by testing several baseline characteristics, including age, disease duration, RF status, TJC, SJC, joint erosions, and CRP. For analyses of CRP, patients were categorized as normal (CRP≦0.8 mg/dL) or abnormal (CRP>0.8 mg/dL).
Mean change from baseline in Total Sharp Score (TSS) was measured at 6 months, 1 year, and 2 years in the intention-to-treat (ITT) population using imputation for missing data. Patients were classified as having radiographic progression (mean change in TSS>0.5) or without radiographic progression (ΔTSS≦0.5). Patients with inadequate data were excluded from this analysis.
Patients in the Ada+MTX and the MTX arms were classified according to level of clinical response (non-responder (<ACR20), ACR20, ACR50, or ACR70) and radiographic progression (Yes or No (ΔTSS≦0.5)). The ΔTSS was analyzed overall, and for ACR subgroups. This included determination of mean ΔTSS and probability plots.
Study J was a 2-year, double-blind, active comparator-controlled, Phase III study. […] For each patient, radiographs of hands and feet were taken at baseline, 6 months, 1 year and 2 years and evaluated for joint erosions (JE) and joint space narrowing (JSN) by 2 blinded radiologists. Changes from baseline in the modified total Sharp score (TSS, 0-398) were calculated for patients in each treatment arm. Cumulative probability plots were generated by estimating the probability of exceeding a given change in TSS. For each treatment, we calculated the percentages of patients whose ΔTSS exceeded specified thresholds, and the probability of having a given ΔTSS (using cumulative probability plots). For each of 4 cumulative probability ranges, 0-10%, 10-50%, 50-90% and 90-100% (higher numbered ranges=greater ΔTSS), mean ΔTSS values were calculated. In previous reports, Study J radiographic analyses employed linear imputation. In the present analysis, only observed data were employed, with no imputation.

[1] = disease duration 6 months-3 years (n=333)

## adalimumab: human anti-TNF mAb (HUMIRA, Abbott Laboratories), described in U.S. Pat. No. 6,090,382 as D2E7
1 year, ACR20 responders
  Mean change in TSS: 2.3
  mean change in JE score: 1.0
  mean change in JSN: 1.3
1 year, ACR50 responders
  Mean change in TSS: 1.7
  mean change in JE score: 0.8
  mean change in JSN: 0.9
1 year, ACR70 responders
  Mean change in TSS: 1.1
  mean change in JE score: 0.5
  mean change in JSN: 0.6
1 year, abnormal baseline CRP normalized at 1 year
  patients with no radiographic progression: 53%
1 year, elevated CRP at both baseline and 1 year
  patients with no radiographic progression: 32%
1 year, patients with DAS28<2.6
  Mean change in TSS: −0.1
2 years
  % of patients with >4 change TSS: 30.7%
  % of patients with >10 change TSS: 17.5%
  % of patients with >20 change TSS: 5.4%
  patients with no radiographic progression (change in TSS ≦0.5): 45%
2 years, ACR20 responders
  mean change in JE score: 2.3
  mean change in JSN: 2.2
  mean change in TSS from baseline: 4.5
2 years, ACR50 responders
  mean change in JE score: 1.5
  mean change in JSN: 1.9
  mean change in TSS from baseline: 3.4
2 years, ACR70 responders
  mean change in JE score: 1.6
  mean change in JSN: 1.9
  mean change in TSS from baseline: 3.5
2 years, patients with DAS28<2.6
  Mean change in TSS: 1.3
2 years, all points (0-100), observed data
  Mean change in TSS: 4.7
2 years, cumulative probability range 0-10
  Mean change in TSS: −2.8
2 years, cumulative probability range 50-90
  Mean change in TSS: 4.7^†
2 years, cumulative probability range 90-100
  Mean change in TSS: 28.9
6 months
  % of patients with >4 change TSS: 0.5%
  % of patients with >10 change TSS: 6.5%
  % of patients with >20 change TSS: 10.6%
  patients with no radiographic progression: 63%
6 months, all points (0-100), observed data
  Mean change in TSS: 2.1*
6 months, cumulative probability range 0-10
  Mean change in TSS: −3.4
6 months, cumulative probability range 90-100
  Mean change in TSS: 13.6
CRP (BL and Year 1) Abnormal to Normal
  Patients with No Radiographic Progression at 1 Year: 53%*
CRP (BL and Year 1) Always Normal
  Patients with No Radiographic Progression at 1 Year: 91%
CRP (BL and Year 1) Never Normal
  Patients with No Radiographic Progression at 1 Year: 32%
Study J
  No Progression at Month 6, %: 63%
  No Progression at Month 6, patients/total: 172/271
  No Progression at Month 6 and Year 2, %: 63%
  No Progression at Month 6 and Year 2, patients/Month-6 non-progressors: 109/172
Among Mo-6 Non-Progressors
  Yr-2 Non-P, %: 63%
  Yr-2 Non-P, number of patients: 109
  Yr-2 Prog, %: 37%
  Yr-2 Prog, number of patients: 63
Among Mo-6 Progressors
  Yr-2 Non-P, %: 13 (13%)
  Yr-2 Non-P, number of patients: 13 (13%)
  Yr-2 Prog, %: 87%
  Yr-2 Prog, number of patients: 86
[1]
  mean change TSS during year 1: 2.4 sharp score units
  mean change TSS during year 2: 3.2 sharp score units
Disease duration <6 months
  mean change TSS during year 1: 3.4 sharp score units
  mean change TSS during year 2: 2.1 sharp score units
No progression = ΔTSS≦0.5
  Mo-6 Non-Progressors, % of arm: 63%
  Mo-6 Non-Progressors, number of patients: 172
No progression at month 6
  patients with no progression at year 2: 63%
Progression = ΔTSS>0.5
  Mo-6 Progressors, % of arm: 37%
  Mo-6 Progressors, number of patients: 99
Progression at month 6
  patients with no progression at year 2: 13%
Week 26, ITT with imputation
  mean change from baseline in TSS: 2.1**
